Holding throughout (format): biochemical
Assay [1] concerns the target T1, Human recombinant PDE10A (hPDE10A) (Homo sapiens, UniProt Q9Y233).
T1 construct: His tag (inferred from metal chelate purification); made in house; host or cells: Sf9 insect cells (baculovirus)
The assay can be described thus: In vitro assay PDE10A, human clone (SPA, 3H-cAMP hydrolysis). The conditions noted are these: human clone (h), default; for Emax: read-out: hPDE10A2 Emax; for IC50: read-out: hPDE10A2 pIC50 (converted). In a few lines: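 Human recombinant PDE10A was expressed in Sf9 cells via baculovirus and incubated with compound in 50 mM Tris pH 7.8, 8.3 mM MgCl2, 1.7 mM EGTA. Substrate was 60 nM cAMP plus 0.008 μCi 3H-cAMP for 60 min at room temperature, read by SPA scintillation counting. Controls used 1% DMSO, and blanks omitted enzyme.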

Assay [2] concerns the target T2, Human recombinant PDE3A (hPDE3A) (Homo sapiens, UniProt Q14432).
T2 construct: purchased Scottish Biomedical; host or cells: Sf9 insect cells
The experiment in a line: In vitro assay PDE3A (SPA, 3H-cAMP hydrolysis).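 On all read-outs here: the method names PDE3A and the table heading PDE3B.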 The conditions noted are these: for IC50: hPDE3B pIC50, read-out: pIC50 (converted); for Emax: read-out: hPDE3B Emax, read-out: Emax. In a few lines: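 Human PDE3A, cloned from brain, as partially purified Sf9 lysate. Substrate 0.4 μM cAMP plus [3H]-cAMP (2.4 μCi/ml final) in 50 mM Tris pH 7.8, 8.3 mM MgCl2, 1.7 mM EGTA, 60 min at room temperature, 1% DMSO final. Hydrolysis read by SPA scintillation counting against no-enzyme blanks and DMSO controls.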

Assay [3] concerns the target T3, Human recombinant PDE2A (hPDE2A) (Homo sapiens, UniProt O00408).
T3 construct: His tag (inferred from metal chelate purification); made in house; host or cells: Sf9 insect cells (baculovirus)
The experiment in a line: In vitro assay PDE2A (SPA, 3H-cGMP hydrolysis). The conditions noted are these: for IC50: read-out: hPDE2A pIC50 (converted); for Emax: read-out: hPDE2A Emax.

The mark [4] stands for this setting: human recombinant PDE2A, 10 μM cGMP substrate.

One may read the Emax as the maximal effect, on the per cent scale that the assay sets.

Where two headings read alike, the source gives them in different places. Where only a bound is given, the exact number is not on record here.

T3 sequence (O00408 whole entry): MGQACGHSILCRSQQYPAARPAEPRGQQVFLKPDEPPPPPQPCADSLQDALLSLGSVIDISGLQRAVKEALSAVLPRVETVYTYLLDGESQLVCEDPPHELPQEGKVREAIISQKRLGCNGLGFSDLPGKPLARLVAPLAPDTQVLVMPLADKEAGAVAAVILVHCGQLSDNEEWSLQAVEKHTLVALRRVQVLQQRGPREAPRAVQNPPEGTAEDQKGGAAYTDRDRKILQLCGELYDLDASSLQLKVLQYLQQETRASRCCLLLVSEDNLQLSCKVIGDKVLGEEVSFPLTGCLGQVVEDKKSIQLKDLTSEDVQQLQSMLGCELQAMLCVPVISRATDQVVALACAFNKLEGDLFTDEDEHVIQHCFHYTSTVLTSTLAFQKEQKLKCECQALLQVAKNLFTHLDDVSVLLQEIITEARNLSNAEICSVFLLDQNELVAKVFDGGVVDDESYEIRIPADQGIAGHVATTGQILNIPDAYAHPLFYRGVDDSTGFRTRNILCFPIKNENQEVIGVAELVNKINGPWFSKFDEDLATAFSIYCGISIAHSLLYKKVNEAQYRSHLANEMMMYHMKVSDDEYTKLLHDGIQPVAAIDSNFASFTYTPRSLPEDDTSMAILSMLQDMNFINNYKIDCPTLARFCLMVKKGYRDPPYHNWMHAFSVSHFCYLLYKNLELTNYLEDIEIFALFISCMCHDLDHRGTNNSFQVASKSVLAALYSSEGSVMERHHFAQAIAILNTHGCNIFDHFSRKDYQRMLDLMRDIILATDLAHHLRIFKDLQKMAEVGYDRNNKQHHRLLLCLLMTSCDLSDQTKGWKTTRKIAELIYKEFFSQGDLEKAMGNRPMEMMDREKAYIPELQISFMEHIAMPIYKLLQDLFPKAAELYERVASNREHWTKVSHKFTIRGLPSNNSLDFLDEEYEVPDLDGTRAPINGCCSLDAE
T1 sequence (Q9Y233 267-1055): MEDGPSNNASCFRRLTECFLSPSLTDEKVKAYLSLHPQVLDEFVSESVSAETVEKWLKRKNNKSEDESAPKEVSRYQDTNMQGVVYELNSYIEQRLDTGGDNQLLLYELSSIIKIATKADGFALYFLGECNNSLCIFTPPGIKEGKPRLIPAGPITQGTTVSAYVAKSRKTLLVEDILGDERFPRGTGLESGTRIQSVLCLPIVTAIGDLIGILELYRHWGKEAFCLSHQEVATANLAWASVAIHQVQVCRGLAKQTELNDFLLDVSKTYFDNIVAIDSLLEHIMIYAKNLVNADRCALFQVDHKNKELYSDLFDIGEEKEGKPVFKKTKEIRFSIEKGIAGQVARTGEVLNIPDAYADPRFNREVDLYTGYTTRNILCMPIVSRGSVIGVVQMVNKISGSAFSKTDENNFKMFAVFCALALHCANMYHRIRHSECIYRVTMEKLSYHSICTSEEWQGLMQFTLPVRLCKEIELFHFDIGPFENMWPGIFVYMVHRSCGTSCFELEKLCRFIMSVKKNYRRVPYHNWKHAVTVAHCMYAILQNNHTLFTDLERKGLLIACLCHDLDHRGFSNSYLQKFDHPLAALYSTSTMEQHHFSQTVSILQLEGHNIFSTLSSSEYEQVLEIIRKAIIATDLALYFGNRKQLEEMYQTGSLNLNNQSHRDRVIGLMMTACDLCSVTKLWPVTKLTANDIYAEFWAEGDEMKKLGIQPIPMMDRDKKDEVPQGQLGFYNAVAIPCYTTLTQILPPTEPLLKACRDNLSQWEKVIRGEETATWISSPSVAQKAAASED
T2 sequence (Q14432 whole entry): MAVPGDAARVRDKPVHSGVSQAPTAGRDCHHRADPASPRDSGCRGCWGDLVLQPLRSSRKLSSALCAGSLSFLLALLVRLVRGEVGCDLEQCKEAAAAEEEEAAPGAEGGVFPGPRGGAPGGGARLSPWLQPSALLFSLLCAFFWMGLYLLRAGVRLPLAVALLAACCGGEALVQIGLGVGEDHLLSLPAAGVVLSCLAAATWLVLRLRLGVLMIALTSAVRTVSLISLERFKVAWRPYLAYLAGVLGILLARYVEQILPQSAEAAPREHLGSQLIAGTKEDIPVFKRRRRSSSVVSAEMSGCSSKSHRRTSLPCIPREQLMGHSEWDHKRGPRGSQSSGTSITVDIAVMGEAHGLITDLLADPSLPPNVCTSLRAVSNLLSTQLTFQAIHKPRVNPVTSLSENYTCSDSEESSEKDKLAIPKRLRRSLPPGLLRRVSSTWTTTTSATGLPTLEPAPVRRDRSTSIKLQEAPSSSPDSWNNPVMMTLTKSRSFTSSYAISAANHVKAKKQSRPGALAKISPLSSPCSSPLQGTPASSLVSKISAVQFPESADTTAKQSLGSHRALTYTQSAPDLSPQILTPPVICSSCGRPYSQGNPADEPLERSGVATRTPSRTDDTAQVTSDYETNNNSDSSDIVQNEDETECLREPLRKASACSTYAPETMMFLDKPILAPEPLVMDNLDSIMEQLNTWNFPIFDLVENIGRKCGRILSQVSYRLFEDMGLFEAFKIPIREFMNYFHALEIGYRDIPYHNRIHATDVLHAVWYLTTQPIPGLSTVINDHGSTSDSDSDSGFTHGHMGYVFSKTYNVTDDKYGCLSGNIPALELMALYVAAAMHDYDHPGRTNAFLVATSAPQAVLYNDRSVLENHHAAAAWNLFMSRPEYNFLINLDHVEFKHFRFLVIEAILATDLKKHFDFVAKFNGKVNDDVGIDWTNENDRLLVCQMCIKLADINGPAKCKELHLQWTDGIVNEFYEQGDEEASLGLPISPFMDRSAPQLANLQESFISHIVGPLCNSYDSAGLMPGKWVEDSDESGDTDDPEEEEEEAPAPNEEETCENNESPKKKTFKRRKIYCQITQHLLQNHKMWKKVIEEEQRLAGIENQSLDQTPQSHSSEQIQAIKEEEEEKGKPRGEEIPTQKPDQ

As to `CC(C)Oc1cc(C(=O)N2CC[C@@H](C)[C@H](c3cc(C(F)F)nc4ncnn34)C2)cc(C(C)C)c1` [Compound 144], the Emax in assay [1] stood at 96%; in assay [2], 86%; in assay [3] (human recombinant PDE2A), 100%; in assay [3] it was 100%. For the same molecule, the IC50 in assay [1] is 468 nM; in assay [2] it was 2400 nM; in assay [3] (setting [4]) it was 34.7 nM; in assay [3], 34.7 nM.

As for `Cc1c(C(=O)N2CC[C@@H](C)[C@H](c3cc(C(F)F)nc4ncnn34)C2)ccc2c1OCO2` [Compound 145], the Emax in assay [1] was determined as 93%; in assay [2] it was 86%; in assay [3] (human recombinant PDE2A), 99%; in assay [3] it was 99%. Besides, the IC50 in assay [1] is 646 nM; in assay [2] it was 2040 nM; in assay [3] (setting [4]), 36.3 nM; in assay [3], 36.3 nM.

Consider `C[C@@H]1CCN(C(=O)c2cnc3ccccc3c2O)C[C@H]1c1cc(C(F)F)nc2ncnn12` [Compound 146], for which the maximum response (Emax) was found to be 76% in assay [1], 85% in assay [2] and 100% in assay [3]. Besides, the IC50 in assay [1] is 3310 nM; in assay [2] it was 1660 nM; in assay [3], 37.2 nM.

In the case of `Cc1csc(C(=O)N2CC[C@@H](C)[C@H](c3cc(C(F)F)nc4ncnn34)C2)c1Cl` [Compound 147], the Emax in assay [1] came out at 90%; in assay [2], 81%; in assay [3] (human recombinant PDE2A) it was 100%; in assay [3] it was 100%. Also, the IC50 was 871 nM in assay [1], 2240 nM in assay [2], 38 nM in assay [3] (setting [4]) and 38 nM in assay [3].

`C[C@@H]1CCN(C(=O)c2cccc(C(F)(F)F)c2F)C[C@H]1c1cc(C(F)F)nc2ncnn12` [Compound 148]: the Emax was 89% in assay [1], 67% in assay [2], 101% in assay [3] (human recombinant PDE2A) and 101% in assay [3]. For the same molecule, the IC50 was 912 nM in assay [1], 5620 nM in assay [2], 38.9 nM in assay [3] (setting [4]) and 38.9 nM in assay [3].

As for `C[C@@H]1CCN(C(=O)c2c(F)cccc2F)C[C@H]1c1cc(C(F)F)nc2ncnn12` [Compound 149], the Emax in assay [1] is 83%; in assay [2], 66%; in assay [3] (human recombinant PDE2A), 99%; in assay [3] it was 99%. Further, the IC50 in assay [1] is 1820 nM; in assay [2], 5130 nM; in assay [3] (setting [4]), 38.9 nM; in assay [3] it was 38.9 nM.

As to `C[C@@H]1CCN(C(=O)c2cccnc2N)C[C@H]1c1cc(C(F)F)nc2ncnn12` [Compound 150], the Emax in assay [1] was 72%; in assay [2], 22%; in assay [3] (human recombinant PDE2A), 100%; in assay [3], 100%. Moreover, the IC50 in assay [1] is 3550 nM; in assay [2], greater than 10000 nM; in assay [3] (setting [4]) it was 39.8 nM; in assay [3], 39.8 nM.

With `Cc1nc2ccncc2cc1C(=O)N1CC[C@@H](C)[C@H](c2cc(C(F)F)nc3ncnn23)C1` [Compound 151], the Emax in assay [1] came to 85%; in assay [2], 11%; in assay [3] it was 100%. Also, the IC50 is 1380 nM in assay [1], greater than 10000 nM in assay [2] and 40.7 nM in assay [3].

Take `Cc1cc(C(=O)N2CC[C@@H](C)[C@H](c3cc(C(F)F)nc4ncnn34)C2)on1` [Compound 152]: the Emax in assay [1] worked out at 80%; in assay [2], 30%; in assay [3] (human recombinant PDE2A) it was 99%; in assay [3], 99%. In addition, the IC50 in assay [1] is 2040 nM; in assay [2], greater than 10000 nM; in assay [3] (setting [4]), 41.7 nM; in assay [3] it was 41.7 nM.

`C[C@@H]1CCN(C(=O)c2ccc(Br)cn2)C[C@H]1c1cc(C(F)F)nc2ncnn12` [Compound 153]: the Emax in assay [1] is 89%; in assay [2], 76%; in assay [3] (human recombinant PDE2A), 100%; in assay [3], 100%. Moreover, the IC50 is 1070 nM in assay [1], 3090 nM in assay [2], 43.7 nM in assay [3] (setting [4]) and 43.7 nM in assay [3].

On to `C[C@@H]1CCN(C(=O)c2ccc(Cl)cn2)C[C@H]1c1cc(C(F)F)nc2ncnn12` [Compound 154], for which the maximal effect (Emax) in assay [1] worked out at 79%; in assay [2], 50%; in assay [3] (human recombinant PDE2A) it was 100%; in assay [3], 100%. Also, the IC50 was 2750 nM in assay [1], greater than 10000 nM in assay [2], 51.3 nM in assay [3] (setting [4]) and 51.3 nM in assay [3].

For `C[C@@H]1CCN(C(=O)c2ccncc2F)C[C@H]1c1cc(C(F)F)nc2ncnn12` [Compound 155], the Emax came to 72% in assay [1], 37% in assay [2], 98% in assay [3] (human recombinant PDE2A) and 98% in assay [3]. The IC50 in assay [1] is 2950 nM; in assay [2] it was greater than 10000 nM; in assay [3] (setting [4]), 53.7 nM; in assay [3] it was 53.7 nM.

Turning to `Cc1ncoc1C(=O)N1CC[C@@H](C)[C@H](c2cc(C(F)F)nc3ncnn23)C1` [Compound 156], the Emax in assay [1] was 81%; in assay [2] it was 19%; in assay [3] (human recombinant PDE2A), 100%; in assay [3], 100%. Moreover, the IC50 in assay [1] was 2000 nM; in assay [2], greater than 10000 nM; in assay [3] (setting [4]) it was 58.9 nM; in assay [3], 58.9 nM.

Take `Cc1cc(C(=O)N2CC[C@@H](C)[C@H](c3cc(C(F)F)nc4ncnn34)C2)no1` [Compound 157]: the maximal effect (Emax) is 75% in assay [1], 33% in assay [2], 99% in assay [3] (human recombinant PDE2A) and 99% in assay [3]. The IC50 was 2570 nM in assay [1], greater than 10000 nM in assay [2], 60.3 nM in assay [3] (setting [4]) and 60.3 nM in assay [3].

Turning to `C[C@@H]1CCN(C(=O)c2csc(N)n2)C[C@H]1c1cc(C(F)F)nc2ncnn12` [Compound 158], the Emax was found to be 78% in assay [1], 19% in assay [2], 100% in assay [3] (human recombinant PDE2A) and 100% in assay [3]. For the same molecule, the IC50 in assay [1] is 2140 nM; in assay [2], greater than 10000 nM; in assay [3] (setting [4]), 64.6 nM; in assay [3] it was 64.6 nM.

For the molecule `Cc1c(C(=O)N2CC[C@@H](C)[C@H](c3cc(C(F)F)nc4ncnn34)C2)ccnc1Cl` [Compound 159], the Emax stood at 75% in assay [1], 42% in assay [2], 100% in assay [3] (human recombinant PDE2A) and 100% in assay [3]. Moreover, the IC50 was 3240 nM in assay [1], greater than 10000 nM in assay [2], 72.4 nM in assay [3] (setting [4]) and 72.4 nM in assay [3].

As for `Cc1cnoc1C(=O)N1CC[C@@H](C)[C@H](c2cc(C(F)F)nc3ncnn23)C1` [Compound 160], the Emax in assay [1] worked out at 88%; in assay [2], 34%; in assay [3] (human recombinant PDE2A) it was 99%; in assay [3] it was 99%. Also, the IC50 in assay [1] is 1020 nM; in assay [2], greater than 10000 nM; in assay [3] (setting [4]), 72.4 nM; in assay [3], 72.4 nM.

With `Cc1nc(C(=O)N2CC[C@@H](C)[C@H](c3cc(C(F)F)nc4ncnn34)C2)c(C(F)(F)F)o1` [Compound 161], the Emax in assay [1] is 74%; in assay [2], 11%; in assay [3] (human recombinant PDE2A), 98%; in assay [3], 98%. The IC50 in assay [1] was 3090 nM; in assay [2], greater than 10000 nM; in assay [3] (setting [4]), 74.1 nM; in assay [3] it was 74.1 nM.

`C[C@@H]1CCN(C(=O)c2cccc(N)n2)C[C@H]1c1cc(C(F)F)nc2ncnn12` [Compound 162]: the Emax was 72% in assay [1], 26% in assay [2], 97% in assay [3] (human recombinant PDE2A) and 97% in assay [3]. For the same molecule, the IC50 is 4270 nM in assay [1], greater than 10000 nM in assay [2], 74.1 nM in assay [3] (setting [4]) and 74.1 nM in assay [3].

In the case of `C[C@@H]1CCN(C(=O)c2cc(C#N)ccn2)C[C@H]1c1cc(C(F)F)nc2ncnn12` [Compound 163], the Emax amounted to 74% in assay [1], 12% in assay [2], 98% in assay [3] (human recombinant PDE2A) and 98% in assay [3]. The IC50 was 3240 nM in assay [1], greater than 10000 nM in assay [2], 89.1 nM in assay [3] (setting [4]) and 89.1 nM in assay [3].

With `C[C@@H]1CCN(C(=O)c2cncn2C)C[C@H]1c1cc(C(F)F)nc2ncnn12` [Compound 164], the Emax came out at 82% in assay [1], 22% in assay [2], 100% in assay [3] (human recombinant PDE2A) and 100% in assay [3]. For the same molecule, the IC50 in assay [1] is 1950 nM; in assay [2], greater than 10000 nM; in assay [3] (setting [4]), 89.1 nM; in assay [3], 89.1 nM.

Take `COc1ccc(C(C)(C)C)cc1C(=O)N1CC[C@@H](C)[C@H](c2cc(C(F)F)nc3ncnn23)C1` [Compound 165]: the maximum response (Emax) in assay [1] amounted to 78%; in assay [2] it was 36%; in assay [3] (human recombinant PDE2A), 100%; in assay [3] it was 100%. In addition, the IC50 in assay [1] is 3470 nM; in assay [2] it was greater than 10000 nM; in assay [3] (setting [4]), 93.3 nM; in assay [3] it was 93.3 nM.
